These results are taken from patent US11226337B2, “Chemoproteomic profiling of protein electrophilic and oxidative post-translational modifications” (Zenagem, LLC, priority 2017, dated 2022).

This assay has as its target T1, CYCS Cytochrome c (P99999) (Homo sapiens, UniProt P99999).
T1 construct: In Situ Labelling of Cells with Hydrazine Probes for MS Experiments; endogenous in cells; host or cells: HEK293T and/or MDA-MB-231
Put plainly: SILAC RP-ABPP. The format is cell-based. To be noted: SILAC H/L, HEK293T. The method in brief:
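Heavy SILAC HEK293T or MDA-MB-231 cells were treated with a clickable hydrazine probe; light cells received the non-clickable analogue (enrichment) or the probe plus 10-fold excess non-clickable competitor (competition). Mixed proteomes underwent CuAAC with 100 μM biotin-azide for 1 h. Heavy:light ratios were taken as median peptide ratios (≥3 peptides) averaged over ≥3 replicates.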

T1 sequence (P99999 whole entry): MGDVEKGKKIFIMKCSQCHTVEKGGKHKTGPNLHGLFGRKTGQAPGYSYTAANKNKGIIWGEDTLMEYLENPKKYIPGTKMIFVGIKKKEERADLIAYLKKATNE

Compound `C#CCCNC(=O)c1ccc(NN)cc1.Cl` [probe 2, N-(but-3-yn-1-yl)-4-hydrazinylbenzamide hydrochloride] registered an enrichment ratioavg (probe 2 1 mM 0.5 h vs probe 4) of 7. Also, the competition ratioavg (probe 2 vs probe 2+10x probe 4) came out at 0.
